Data: US3950517A, “Insulin derivatives” (National Research Development Corporation, priority 1970, dated 1976)

Tests used:
blood sugar = assay: Blood sugar lowering activity by intravenous injection into laboratory animals; format: in vivo; conditions: Table 2; percentage basis relative to insulin
From the text: (§1) In most cases the new derivatives have an initial bloor sugar lowering effect which is virtually indistinguishable from insulin itself. In contrast the derivatives have less than about 50% of the immunoreactivity of the parent insulin as determined by radioimmunoassay. In many cases the reduction in immunoreactivity (reactivity towards specific insulin antibody) is as low as 30% or even 10% of that of the parent hormone. The figures are expressed on a percentage basis relative to insulin.

[1] = test system: specific insulin antibody; assay: Radioimmunoassay of immunoreactivity (reactivity towards specific insulin antibody); format: binding; conditions: percentage basis relative to insulin; for Immunoreactivity: Table 2; for Radioimmunoassay Immunoreactivity: Table 1
From the text: as §1

Mouse = Mouse convulsion assay (British Pharmacopoeia, 1968) against neutral insulin standard; format: in vivo; conditions: Table 1; percentage basis relative to insulin
From the text: as §1
The insulin derivatives were separated from trace amounts of urea and salt by elution from a Sephadex G.10 column (2.5 × 60 cm.) equilibrated with 5% aqueous acid and the protein, after lyophilisation, was dried over phosphorous pentoxide at room temperature for 2 days. The derivatives were assayed against a neutral insulin solution (Nuso insulin batch A 354) as standard by the Mouse Convulsion method (British Pharmacopoeia, 1968). All injections were of solutions in acetate buffer, pH 8.0.

Row | Substance | Blood sugar lowering (blood sugar) | Immunoreactivity [1] | Mouse convulsion assay Mean potency (Mouse) | Radioimmunoassay Immunoreactivity [1]
1 | (Carbamyl-Gly)A1 -(Carbamyl-Phe)B1 -(Carbamyl-Lys)B29 -insulin | 100% | 9% | – | –
2 | (Carbamyl-Gly)A1 -(Carbamyl-Phe)B1 -insulin | 100% | 10% | – | –
3 | (Carbamyl-Phe)B1 -insulin | 100% | 23% | – | –
4 | A1, B1, B29 -triacetyl-insulin | – | – | 96% | 10%
5 | Crystalline bovine insulin: Parent bovine insulin, reference set to 100 [reference compound] | 100% | 100% | 100% | 100%
6 | Gly^A1 -monosubstituted insulin (a) carbamyl: Insulin carbamylated at A1 glycine | 100% | – | – | –
7 | Gly^A1 -monosubstituted insulin (b) methylthiocarbamyl: Insulin methylthiocarbamylated at A1 glycine | 100% | 92% | – | –
8 | Gly^A1 -monosubstituted insulins (a) Acetyl (bovine): Bovine insulin acetylated at the A1 glycine amino group | – | – | 105% | 71%
9 | Gly^A1 -monosubstituted insulins (b) Acetoacetyl (bovine): Bovine insulin acetoacetylated at the A1 glycine amino group | – | – | 88% | 87%
10 | Gly^A1 -monosubstituted insulins (c) Thiazolidine (bovine): Bovine insulin acylated at A1 glycine with 2,2-dimethyl-3-formyl-L-thiazolidine-4-carboxylic acid | – | – | 57% | 81%
11 | Gly^A1 Lys^B29 -diacetyl insulin | – | – | 93% | 67%
12 | Lys^B29 -monosubstituted insulins (b) Thiazolidine (bovine): Bovine insulin acylated at B29 lysine with 2,2-dimethyl-3-formyl-L-thiazolidine-4-carboxylic acid | – | – | 101% | 84%
13 | Lys^B29 acetyl insulin | – | – | 114% | 83%
14 | Phe^B1 -Gly^A1 -disubstituted insulins (b) methylthiocarbamyl: Insulin methylthiocarbamylated at A1 and B1 | 100% | 20% | – | –
15 | Phe^B1 -monosubstituted insulins (b) Acetoacetyl (bovine): Bovine insulin acetoacetylated (diketen) at the B1 phenylalanine amino group | – | – | 109% | 8.6%
16 | Phe^B1 -monosubstituted insulins (c) Thiazolidine (bovine): Bovine insulin acylated at B1 phenylalanine with 2,2-dimethyl-3-formyl-L-thiazolidine-4-carboxylic acid | – | – | 103% | 27%
17 | Phe^B1 Gly^A1 -diacetyl insulin | – | – | 90% | 25%
18 | Phe^B1 acetyl insulin | – | – | 100% | 30%
19 | Phe^B1, Gly^A1 -disubstituted insulins (b) Acetoacetyl (bovine): Bovine insulin acetoacetylated at B1 and A1 | – | – | 76% | 14%
20 | Phe^B1, Gly^A1, Lys^B29 -trisubstituted insulins (b) Acetoacetyl (bovine): Bovine insulin acetoacetylated at A1, B1 and B29 | – | – | 77% | 17%
